Measured values taken from US4913891A, “Positron emitter labeled enzyme inhibitors” (The United States of America as represented by the United …, priority 1987, dated 1990).
Read-outs that look alike come from different tables or passages of the source.

Key:
[1] = Integrated plasma activity for the 30-minute period after tracer injection; format: in vivo, human; conditions: 30-minute period after injection
Text: Integrated plasma activity
for the 30-minute time period after injection is also presented.

MAO A = biological target: T1, MAO A (Mus musculus, UniProt Q64133); conditions: for Effect of cross pretreatment on tracer distribution: mice pretreated with unlabeled L-deprenyl 10 mg/kg i.p. one hour before tracer
T1 sequence (Q64133 1-526): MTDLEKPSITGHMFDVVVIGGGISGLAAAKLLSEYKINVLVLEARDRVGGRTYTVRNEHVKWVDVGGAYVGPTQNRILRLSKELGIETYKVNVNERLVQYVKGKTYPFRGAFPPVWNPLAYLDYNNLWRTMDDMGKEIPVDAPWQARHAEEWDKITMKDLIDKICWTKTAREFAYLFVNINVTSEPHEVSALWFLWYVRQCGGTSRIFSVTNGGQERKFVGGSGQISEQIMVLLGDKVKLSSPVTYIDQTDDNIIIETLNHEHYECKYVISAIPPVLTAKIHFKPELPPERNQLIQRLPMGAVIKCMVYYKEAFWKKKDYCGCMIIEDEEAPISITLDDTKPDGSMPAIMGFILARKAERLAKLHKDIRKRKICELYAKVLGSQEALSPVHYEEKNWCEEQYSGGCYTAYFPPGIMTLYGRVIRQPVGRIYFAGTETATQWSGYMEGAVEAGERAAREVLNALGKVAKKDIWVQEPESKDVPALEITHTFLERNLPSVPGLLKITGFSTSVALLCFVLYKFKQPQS
Method: Organs were rapidly removed, blotted free of blood, placed in preweighed counting vials, and counted, along with injection standards, in a sodium iodide well counter.
For the determination of protein binding, freshly excised brains were minced in preweighed centrifuge tubes containing 2 ml 0.4% HClO4 […], weighed, counted, diluted with 1 ml HClO4 and 1 ml methanol, and homogenized by ultrasonication. After centrifugation and decantation, the pellets were resuspended in 3 ml methanol, sonicated, and recentrifuged. The combined supernatants and pellet were counted in a sodium iodide well counter. […] Because of the short half-life of C-11, corrections for the decay of the isotope were calculated to a standard time (end of cyclotron bombardment) for all data.
For pretreatment experiments, mice were given intraperitoneal injections of unlabeled clorgyline or L-deprenyl (10 mg/kg) one hour before the administration of the [^11 C]-tracer.

monoamine oxidase = experiment: PET in baboons, double injection with intervening high dose of unlabeled compound; format: in vivo; conditions: baboon pretreated with L-deprenyl, some brain regions
[2] = study 5, subject receiving phenelzine plus amphetamine

SMILES	Integrated plasma activity ([1]; study 1, normal volunteer) [nCi ml min]	Integrated plasma activity ([1]; study 2, normal volunteer) [nCi ml min]	Integrated plasma activity ([1]; study 3, normal volunteer) [nCi ml min]	Integrated plasma activity ([1]; study 4, normal volunteer) [nCi ml min]	Integrated plasma activity [1, 2] [nCi ml min]	Effect of cross pretreatment on tracer distribution (MAO A)	Effect of cross pretreatment on tracer distribution (MAO A; listed as [^11 C]Clorgyline)	Brain uptake compared with the other tracer (MAO A; mouse brain, control and pretreated mice)	Reduction of brain radioactivity due to tracer after pretreatment (monoamine oxidase) [%]
C#CCN([11CH3])CCCOc1ccc(Cl)cc1Cl [[^11 C]clorgyline]	2329	3206	3260	3611	3965	did not significantly alter from control	no effect	slight but consistently higher uptake than L-deprenyl	–
C#CCN([11CH3])[C@H](C)Cc1ccccc1 [[^11 C]-L-deprenyl]	1818	2295	1018	1618	2776	–	–	–	≤ 80
